Where two headings read alike, the source gives them in different places.
What was measured:
[1] = biological target: T1, TBK1(h) (Homo sapiens, UniProt Q9UHD2); assay: Kinase panel; format: biochemical
T1 construct: purchased Millipore KinaseProfiler
T1 sequence (Q9UHD2 1-729): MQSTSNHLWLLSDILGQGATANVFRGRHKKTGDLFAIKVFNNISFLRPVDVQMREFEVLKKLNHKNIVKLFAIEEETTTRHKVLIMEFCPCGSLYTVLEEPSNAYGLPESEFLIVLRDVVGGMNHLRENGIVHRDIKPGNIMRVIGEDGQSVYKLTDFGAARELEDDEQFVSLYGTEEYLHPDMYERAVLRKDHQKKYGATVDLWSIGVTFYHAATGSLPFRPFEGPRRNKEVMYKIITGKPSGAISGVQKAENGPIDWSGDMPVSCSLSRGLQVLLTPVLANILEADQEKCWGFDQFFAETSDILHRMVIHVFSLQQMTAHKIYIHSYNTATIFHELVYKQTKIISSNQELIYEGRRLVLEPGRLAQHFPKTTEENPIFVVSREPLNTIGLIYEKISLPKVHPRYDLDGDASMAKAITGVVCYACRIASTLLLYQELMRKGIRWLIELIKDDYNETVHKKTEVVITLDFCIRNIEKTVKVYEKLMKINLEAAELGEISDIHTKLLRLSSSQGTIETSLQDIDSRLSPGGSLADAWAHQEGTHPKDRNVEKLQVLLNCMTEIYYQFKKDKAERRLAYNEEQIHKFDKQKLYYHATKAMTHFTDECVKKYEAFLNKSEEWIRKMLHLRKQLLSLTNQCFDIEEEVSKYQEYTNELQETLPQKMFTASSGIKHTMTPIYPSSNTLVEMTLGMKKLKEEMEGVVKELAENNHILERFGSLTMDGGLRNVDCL

[2] = biological target: PKCη (Homo sapiens, UniProt P24723); assay: Kinase IC50 assay; format: biochemical
[3] = biological target: T2, Abl(h) (Homo sapiens, UniProt P00519); assay: Kinase panel; format: biochemical
T2 construct: purchased Millipore KinaseProfiler

[4] = biological target: T3, MKK4(m) (Mus musculus, UniProt P47809); assay: Kinase panel; format: biochemical
T3 construct: purchased Millipore KinaseProfiler
T3 sequence (P47809 2-397 limits assumed): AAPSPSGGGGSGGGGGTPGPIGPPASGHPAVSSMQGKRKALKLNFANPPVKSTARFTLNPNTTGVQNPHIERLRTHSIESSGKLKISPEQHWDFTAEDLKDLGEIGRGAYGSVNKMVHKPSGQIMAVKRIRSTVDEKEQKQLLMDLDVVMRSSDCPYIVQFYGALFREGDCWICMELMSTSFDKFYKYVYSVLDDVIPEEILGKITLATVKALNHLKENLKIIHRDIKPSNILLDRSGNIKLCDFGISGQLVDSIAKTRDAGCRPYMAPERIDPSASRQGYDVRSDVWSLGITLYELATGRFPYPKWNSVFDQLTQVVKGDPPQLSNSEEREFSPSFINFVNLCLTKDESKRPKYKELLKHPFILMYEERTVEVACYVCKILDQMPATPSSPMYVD

[5] = biological target: T4, MLK1(h) (Homo sapiens, UniProt P80192); assay: Kinase panel; format: biochemical
T4 construct: purchased Millipore KinaseProfiler
T4 sequence (P80192 whole entry): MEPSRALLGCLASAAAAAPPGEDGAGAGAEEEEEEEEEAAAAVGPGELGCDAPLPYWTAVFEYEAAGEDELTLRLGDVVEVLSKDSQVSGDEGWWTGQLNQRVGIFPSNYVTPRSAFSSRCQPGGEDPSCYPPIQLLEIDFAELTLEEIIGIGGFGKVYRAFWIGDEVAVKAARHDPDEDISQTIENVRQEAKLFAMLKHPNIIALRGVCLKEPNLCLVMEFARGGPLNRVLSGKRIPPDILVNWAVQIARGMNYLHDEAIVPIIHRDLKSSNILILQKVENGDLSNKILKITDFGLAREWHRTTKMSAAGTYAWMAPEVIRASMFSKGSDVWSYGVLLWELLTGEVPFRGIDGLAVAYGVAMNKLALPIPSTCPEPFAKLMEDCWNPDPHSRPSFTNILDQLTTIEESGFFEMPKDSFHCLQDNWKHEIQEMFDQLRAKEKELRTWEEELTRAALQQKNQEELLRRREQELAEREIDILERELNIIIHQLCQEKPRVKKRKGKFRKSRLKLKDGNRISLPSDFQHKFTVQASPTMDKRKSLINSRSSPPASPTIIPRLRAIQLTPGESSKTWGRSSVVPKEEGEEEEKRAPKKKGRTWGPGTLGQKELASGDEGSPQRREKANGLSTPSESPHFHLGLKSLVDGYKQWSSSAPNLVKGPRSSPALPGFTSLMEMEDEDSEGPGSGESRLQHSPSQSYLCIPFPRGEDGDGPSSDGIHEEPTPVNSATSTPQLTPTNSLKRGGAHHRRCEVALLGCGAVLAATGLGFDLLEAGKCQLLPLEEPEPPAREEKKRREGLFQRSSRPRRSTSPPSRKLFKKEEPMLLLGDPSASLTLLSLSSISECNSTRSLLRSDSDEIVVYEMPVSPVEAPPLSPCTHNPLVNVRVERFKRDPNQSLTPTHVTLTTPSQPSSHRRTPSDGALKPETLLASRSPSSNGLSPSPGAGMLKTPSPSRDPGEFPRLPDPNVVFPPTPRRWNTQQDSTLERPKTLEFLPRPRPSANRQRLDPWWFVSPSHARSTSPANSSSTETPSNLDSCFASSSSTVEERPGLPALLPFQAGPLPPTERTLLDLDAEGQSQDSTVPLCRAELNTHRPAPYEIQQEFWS

[6] = biological target: T5, FGFR3(h) (Homo sapiens, UniProt P22607); assay: Kinase panel; format: biochemical
T5 construct: purchased Millipore KinaseProfiler
T5 sequence (P22607 23-806): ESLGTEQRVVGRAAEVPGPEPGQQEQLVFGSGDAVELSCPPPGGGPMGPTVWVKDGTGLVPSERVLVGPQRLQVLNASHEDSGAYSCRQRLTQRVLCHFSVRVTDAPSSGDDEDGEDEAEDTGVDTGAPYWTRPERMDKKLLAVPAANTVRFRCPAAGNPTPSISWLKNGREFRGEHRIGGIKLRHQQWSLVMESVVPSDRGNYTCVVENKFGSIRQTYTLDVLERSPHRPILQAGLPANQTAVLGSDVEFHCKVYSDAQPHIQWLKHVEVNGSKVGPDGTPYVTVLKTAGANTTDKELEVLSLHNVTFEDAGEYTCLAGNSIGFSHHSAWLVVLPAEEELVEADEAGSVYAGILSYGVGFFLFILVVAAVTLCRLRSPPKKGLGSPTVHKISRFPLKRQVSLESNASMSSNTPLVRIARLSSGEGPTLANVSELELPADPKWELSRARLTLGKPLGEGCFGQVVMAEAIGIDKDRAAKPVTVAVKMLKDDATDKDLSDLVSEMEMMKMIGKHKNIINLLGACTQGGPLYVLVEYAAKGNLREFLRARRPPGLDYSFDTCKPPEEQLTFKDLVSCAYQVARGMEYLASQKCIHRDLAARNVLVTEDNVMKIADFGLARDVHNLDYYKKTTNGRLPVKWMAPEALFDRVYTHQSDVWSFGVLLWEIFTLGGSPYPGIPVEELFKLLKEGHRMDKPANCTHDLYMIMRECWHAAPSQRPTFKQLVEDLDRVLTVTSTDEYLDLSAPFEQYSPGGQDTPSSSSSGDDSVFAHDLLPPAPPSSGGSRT

[7] = biological target: T6, MRCKα(h) (Homo sapiens, UniProt Q5VT25); assay: Kinase panel; format: biochemical
T6 construct: purchased Millipore KinaseProfiler

[8] = Plasma insulin after single oral dose; format: in vivo, mouse
Experimental: Blood glucose levels were determined from tail vein puncture in mice using a handheld glucometer. Plasma Insulin levels were using the Rat Ultrasensitive Insulin ELISA kit (Crystal Chem Inc).

[9] = biological target: T7, PKCδ(h) (Homo sapiens, UniProt Q05655); assay: Kinase panel; format: biochemical
T7 construct: purchased Millipore KinaseProfiler
T7 sequence (Q05655 whole entry): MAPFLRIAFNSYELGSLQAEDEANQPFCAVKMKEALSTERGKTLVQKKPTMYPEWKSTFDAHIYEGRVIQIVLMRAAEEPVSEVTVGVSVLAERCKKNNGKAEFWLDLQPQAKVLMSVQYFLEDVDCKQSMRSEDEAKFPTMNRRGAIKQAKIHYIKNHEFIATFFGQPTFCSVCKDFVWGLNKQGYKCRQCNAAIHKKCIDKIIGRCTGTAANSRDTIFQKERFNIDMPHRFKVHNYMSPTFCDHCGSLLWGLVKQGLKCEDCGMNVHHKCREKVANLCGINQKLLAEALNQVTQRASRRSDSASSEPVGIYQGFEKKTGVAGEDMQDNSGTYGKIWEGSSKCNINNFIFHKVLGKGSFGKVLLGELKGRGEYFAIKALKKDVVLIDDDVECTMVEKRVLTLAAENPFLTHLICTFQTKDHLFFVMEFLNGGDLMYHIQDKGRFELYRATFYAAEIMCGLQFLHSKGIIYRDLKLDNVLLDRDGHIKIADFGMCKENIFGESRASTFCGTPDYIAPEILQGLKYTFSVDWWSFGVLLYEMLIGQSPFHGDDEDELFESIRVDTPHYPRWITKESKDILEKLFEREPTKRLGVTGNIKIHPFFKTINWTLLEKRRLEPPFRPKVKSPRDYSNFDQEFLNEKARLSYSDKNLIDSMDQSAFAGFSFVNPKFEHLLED

[10] = biological target: RSK1 (Homo sapiens, UniProt Q15418); assay: Kinase IC50 assay; format: biochemical
[11] = biological target: T8, Rsk2(h) (Homo sapiens, UniProt P51812); assay: Kinase panel; format: biochemical
T8 construct: purchased Millipore KinaseProfiler
T8 sequence (P51812 whole entry): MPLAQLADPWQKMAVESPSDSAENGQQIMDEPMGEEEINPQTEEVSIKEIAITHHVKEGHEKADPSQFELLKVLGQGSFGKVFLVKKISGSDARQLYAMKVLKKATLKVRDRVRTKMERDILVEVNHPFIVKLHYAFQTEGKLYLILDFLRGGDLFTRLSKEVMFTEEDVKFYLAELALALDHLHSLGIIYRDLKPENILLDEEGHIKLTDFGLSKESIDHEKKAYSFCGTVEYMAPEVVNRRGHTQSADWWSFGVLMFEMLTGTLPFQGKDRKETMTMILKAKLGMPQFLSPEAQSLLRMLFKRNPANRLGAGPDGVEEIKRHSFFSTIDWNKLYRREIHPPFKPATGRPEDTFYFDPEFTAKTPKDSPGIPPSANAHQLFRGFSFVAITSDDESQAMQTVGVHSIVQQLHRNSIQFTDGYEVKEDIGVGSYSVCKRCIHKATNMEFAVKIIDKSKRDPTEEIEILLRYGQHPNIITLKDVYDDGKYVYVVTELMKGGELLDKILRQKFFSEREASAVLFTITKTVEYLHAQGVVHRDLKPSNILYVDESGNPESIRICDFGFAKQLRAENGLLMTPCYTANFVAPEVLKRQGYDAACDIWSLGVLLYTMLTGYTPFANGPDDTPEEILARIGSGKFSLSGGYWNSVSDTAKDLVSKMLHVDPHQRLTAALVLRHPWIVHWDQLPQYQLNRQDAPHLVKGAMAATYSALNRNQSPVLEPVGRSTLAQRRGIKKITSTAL

[12] = biological target: T9, BrSK2(h) (Homo sapiens, UniProt Q8IWQ3); assay: Kinase panel; format: biochemical
T9 construct: purchased Millipore KinaseProfiler
T9 sequence (Q8IWQ3 1-736): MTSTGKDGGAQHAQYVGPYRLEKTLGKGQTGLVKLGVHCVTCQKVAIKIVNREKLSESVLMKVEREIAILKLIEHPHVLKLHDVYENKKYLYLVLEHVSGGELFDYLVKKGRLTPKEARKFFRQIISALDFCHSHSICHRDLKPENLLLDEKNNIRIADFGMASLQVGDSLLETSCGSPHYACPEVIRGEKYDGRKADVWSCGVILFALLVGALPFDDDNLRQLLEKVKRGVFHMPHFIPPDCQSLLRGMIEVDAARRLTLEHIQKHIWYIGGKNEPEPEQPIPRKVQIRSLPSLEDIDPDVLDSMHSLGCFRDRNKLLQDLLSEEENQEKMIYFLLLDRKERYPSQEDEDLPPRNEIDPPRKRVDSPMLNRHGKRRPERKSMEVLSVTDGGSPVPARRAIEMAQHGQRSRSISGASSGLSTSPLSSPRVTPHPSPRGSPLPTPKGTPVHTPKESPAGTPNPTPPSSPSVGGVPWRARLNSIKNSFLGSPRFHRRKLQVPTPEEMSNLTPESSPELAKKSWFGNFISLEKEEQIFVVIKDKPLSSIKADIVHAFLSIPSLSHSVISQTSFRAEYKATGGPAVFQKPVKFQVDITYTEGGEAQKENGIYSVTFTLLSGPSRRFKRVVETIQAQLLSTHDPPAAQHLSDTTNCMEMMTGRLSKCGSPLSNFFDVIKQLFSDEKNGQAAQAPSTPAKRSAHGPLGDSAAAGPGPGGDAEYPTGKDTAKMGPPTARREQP

[13] = biological target: T10, EGFR(T790M,L858R)(h) (Homo sapiens, UniProt P00533, L858R/T790M); assay: Kinase panel; format: biochemical
T10 construct: purchased Millipore KinaseProfiler
T10 sequence (P00533 25-1210 T790M/L858R): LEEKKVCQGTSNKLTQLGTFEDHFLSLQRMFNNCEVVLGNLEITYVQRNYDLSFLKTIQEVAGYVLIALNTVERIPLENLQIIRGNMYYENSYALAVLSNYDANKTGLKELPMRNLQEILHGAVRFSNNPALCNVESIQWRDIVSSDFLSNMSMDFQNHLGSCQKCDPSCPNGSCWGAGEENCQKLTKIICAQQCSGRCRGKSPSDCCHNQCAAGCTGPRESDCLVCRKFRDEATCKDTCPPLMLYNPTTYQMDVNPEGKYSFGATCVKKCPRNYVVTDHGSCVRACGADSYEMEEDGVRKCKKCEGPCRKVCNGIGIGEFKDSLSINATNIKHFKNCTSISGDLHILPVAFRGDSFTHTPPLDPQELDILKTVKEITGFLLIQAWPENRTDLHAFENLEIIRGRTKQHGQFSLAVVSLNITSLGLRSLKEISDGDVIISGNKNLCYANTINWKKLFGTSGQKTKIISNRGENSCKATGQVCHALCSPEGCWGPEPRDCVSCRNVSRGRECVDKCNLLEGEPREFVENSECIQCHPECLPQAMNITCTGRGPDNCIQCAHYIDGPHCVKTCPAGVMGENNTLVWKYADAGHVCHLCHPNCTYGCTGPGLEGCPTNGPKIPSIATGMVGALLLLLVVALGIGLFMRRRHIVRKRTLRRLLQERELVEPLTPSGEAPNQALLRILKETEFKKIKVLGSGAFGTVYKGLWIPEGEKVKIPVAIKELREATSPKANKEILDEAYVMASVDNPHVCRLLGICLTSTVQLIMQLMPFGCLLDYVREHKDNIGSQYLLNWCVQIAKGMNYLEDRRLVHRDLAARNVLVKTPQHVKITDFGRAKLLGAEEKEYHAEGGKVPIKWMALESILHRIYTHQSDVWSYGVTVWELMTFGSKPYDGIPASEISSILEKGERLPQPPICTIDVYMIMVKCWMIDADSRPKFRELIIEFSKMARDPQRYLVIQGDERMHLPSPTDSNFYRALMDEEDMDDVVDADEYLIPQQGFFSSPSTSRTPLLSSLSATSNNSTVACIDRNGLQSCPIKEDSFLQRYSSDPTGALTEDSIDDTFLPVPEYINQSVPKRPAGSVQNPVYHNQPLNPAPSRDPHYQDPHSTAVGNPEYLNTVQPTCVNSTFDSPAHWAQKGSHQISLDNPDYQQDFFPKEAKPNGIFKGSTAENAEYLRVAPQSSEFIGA

Molecule Cn1ncc(Cl)c1-c1cc(C(=O)N[C@H](CN)Cc2ccc(F)c(F)c2)oc1Cl [GSK2141795] has an inhibition at 0.5 µM ([1]; 0.5 µM, read-out: % Inhibition) of 1%, an inhibition at 10 µM ([1]; 10 µM, read-out: % Inhibition) of 4% and an IC50 [2] of 49 nM. It also gave an inhibition at 0.5 µM ([3]; 0.5 µM, read-out: % Inhibition) of 12%, an inhibition at 10 µM ([3]; 10 µM, read-out: % Inhibition) of 13% and an inhibition at 0.5 µM ([4]; 0.5 µM, read-out: % Inhibition) of 8%. For the same molecule, the inhibition at 10 µM ([4]; 10 µM, read-out: % Inhibition) was 36%, the inhibition at 0.5 µM ([5]; 0.5 µM, read-out: % Inhibition) was -14% and the inhibition at 10 µM ([5]; 10 µM, read-out: % Inhibition) was 45%. It also gave an inhibition at 0.5 µM ([6]; 0.5 µM, read-out: % Inhibition) of -14%, an inhibition at 10 µM ([6]; 10 µM, read-out: % Inhibition) of 2% and an inhibition at 0.5 µM ([7]; 0.5 µM, read-out: % Inhibition) of -6%. The inhibition at 10 µM ([7]; 10 µM, read-out: % Inhibition) was -2%, the “time for insulin to return to normal” value ([8]; single 30 mg/kg dose) was at most 8 h and the plasma insulin ([8]; single 30 mg/kg dose, concomitant with glucose at 2 h) was 188 ng/mL. The inhibition at 0.5 µM ([9]; 0.5 µM, read-out: % Inhibition) was 67%, the inhibition at 10 µM ([9]; 10 µM, read-out: % Inhibition) was 85% and the IC50 [10] was 200 nM. For the same molecule, the inhibition at 0.5 µM ([11]; 0.5 µM, read-out: % Inhibition) was 73%, the inhibition at 10 µM ([11]; 10 µM, read-out: % Inhibition) was 100% and the inhibition at 0.5 µM ([12]; 0.5 µM, read-out: % Inhibition) was 2%. It also gave an inhibition at 10 µM ([12]; 10 µM, read-out: % Inhibition) of 27%, an inhibition at 0.5 µM ([13]; 0.5 µM, read-out: % Inhibition) of -7% and an inhibition at 10 µM ([13]; 10 µM, read-out: % Inhibition) of 18%.
Cn1ncc(Cl)c1-c1cc(C(=O)N[C@H](CN)Cc2cccc(F)c2)sc1Cl [GSK2110183] gave an inhibition at 0.5 µM [1] of 1%, an inhibition at 10 µM [1] of 2% and an IC50 [2] of 210 nM. The inhibition at 0.5 µM [3] was 8%, the inhibition at 10 µM [3] was 4% and the inhibition at 0.5 µM [4] was 25%. The inhibition at 10 µM [4] was 57%, the inhibition at 0.5 µM [5] was -8% and the inhibition at 10 µM [5] was 11%. For the same molecule, the inhibition at 0.5 µM [6] was -6%, the inhibition at 10 µM [6] was 9% and the inhibition at 0.5 µM [7] was -9%. For the same molecule, the inhibition at 10 µM [7] was -5%, the “time for insulin to return to baseline” value ([8]; 100 mg/kg single oral dose) was at most 8 h and the insulin level ([8]; 100 mg/kg single oral dose, 4 h post dosing) was 105.6 ng/mL. It also gave an inhibition at 0.5 µM [9] of 48%, an inhibition at 10 µM [9] of 92% and an IC50 [10] of 316 nM. The inhibition at 0.5 µM [11] was 63%, the inhibition at 10 µM [11] was 97% and the inhibition at 0.5 µM [12] was -2%. For the same molecule, the inhibition at 10 µM [12] was 17%, the inhibition at 0.5 µM [13] was -32% and the inhibition at 10 µM [13] was -3%.

Reference: paper PMC4076210, “Discovery of Novel AKT Inhibitors with Enhanced Anti-Tumor Effects in Combination with the MEK Inhibitor” (PLoS ONE, 2014)
